For assay [1], the target named is T1, human leukocyte elastase (HLE) (Homo sapiens, UniProt P08246).
T1 construct: from tissue; host or cells: human white blood cells
T1 sequence (P08246 30-247 limits assumed): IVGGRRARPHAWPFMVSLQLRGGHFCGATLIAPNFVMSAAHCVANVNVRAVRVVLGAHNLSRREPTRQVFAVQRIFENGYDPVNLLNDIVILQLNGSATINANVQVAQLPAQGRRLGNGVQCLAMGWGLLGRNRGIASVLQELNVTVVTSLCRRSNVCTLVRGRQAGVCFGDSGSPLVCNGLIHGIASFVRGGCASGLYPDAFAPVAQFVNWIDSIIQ
The experiment in a line: Enzyme Assay for Inhibition of HLE. The assay is classed as biochemical. The following applies: HLE 10 nM, pH 7.6, 10 minute preincubation, 30° C. As for the experimental part: Enzyme Assay for Inhibition of HLE:
Enzyme: Purified elastase from human white blood cells.
Substrate: MeO-succinyl-L-alanyl-L-alanyl-L-prolyl-L-valine-p-nitro-anilide(NA).
Reaction Mixture: 10 mM phosphate buffer (pH 7.6), 500 mM NaCl, 10% dimethylsulfoxide (DMSO), 0.35 mM substrate.
The enzyme activity was determined by monitoring the increase in absorbance at 410 nm caused by the hydrolysis of chromogenic substrates. Inhibition of enzyme by the compounds described were determined after a 10 minute preincubation with the enzyme in reaction mixture minus substrate. Reaction was initiated by the addition of substrate. The concentration of human leukocyte elastase used for assay was at 10 nM.
HLE, CTG, PPE and CTD were tested at 30° C. and the others were […]

Assay [2] has as its target T2, trypsin (Bos taurus, UniProt P00760).
T2 construct: from tissue; host or cells: bovine pancreas
T2 sequence (P00760 24-246): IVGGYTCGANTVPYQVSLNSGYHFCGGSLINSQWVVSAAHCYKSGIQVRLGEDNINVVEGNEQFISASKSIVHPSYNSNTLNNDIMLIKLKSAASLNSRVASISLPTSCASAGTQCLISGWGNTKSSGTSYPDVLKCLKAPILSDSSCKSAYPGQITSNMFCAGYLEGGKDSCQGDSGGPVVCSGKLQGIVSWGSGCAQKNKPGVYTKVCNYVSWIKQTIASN
The assay can be described thus: Inhibition of trypsin (TRY). The assay is classed as biochemical, bovine. The following applies: trypsin, pH 8.8, 10 minute preincubation, 22° C.; read-out: IC50 TRY (converted).
Method: Enzyme: Purified trypsin from bovine pancreas
Substrate: Bz-L-arginine-p-NA
Reaction mixture: 50 mM Tricine[N-Tris(hydroxymethyl)methylglycine]-NaOH buffer (pH 8.8) 150 mM NaCl, 10% DMSO 1.0 mM Substrate.
Inhibition of enzymes by the compounds described were determined after a 10 minute preincubation with enzymes in reaction mixtures minus substrate. Reactions were initiated by the addition of substrates. […] All other proteases were assayed at the concentrations that produced approximately 0.1 O.D. change per minute at 410 nm under the standard conditions.

Assay [3] concerns the target T3, thrombin (Homo sapiens, UniProt P00734).
T3 construct: from tissue; host or cells: human plasma
The assay can be described thus: Inhibition of thrombin (THR). The assay is classed as biochemical. Particulars: pH 8.6, 10 minute preincubation, 22° C. As for the experimental part: (§1) HLE, CTG, PPE and CTD were tested at 30° C. and the others were
(§2) TRY, trypsin; THR, thrombin; PTH, plasmin; CTC, cathepsin C; ATM,
Enzyme: Purified thrombin from human plasma
Substrate: Tosyl-glycyl-L-prolyl-L-arginine-p-NA acetate
Reaction mixture: 50 mM Tricine-NaOH buffer (pH 8.6), 500 mM NaCl, 0.1% Polyethyleneglycol 8000, 10% DMSO, 0.5 mM Substrate.
(§3) Except for Cathepsin D, the enzyme activities were determined by monitoring the increase in absorbance at 410 nm caused by the hydrolysis of chromogenic substrates. The activity of Cathepsin D was determined by monitoring the absorbance of 5% trichloroacetic acid-soluble material at 280 nm.
(§4) Inhibition of enzymes by the compounds described were determined after a 10 minute preincubation with enzymes in reaction mixtures minus substrate. Reactions were initiated by the addition of substrates. The concentration used for assays were porcine pancreatic elastase at 240 nM and human Cathepsin G at 50 nM. Cathepsin D was used at the concentration that produced approximately 0.15 O.D. increase per 20 min at 280 nm under the standard conditions. All other proteases were assayed at the concentrations that produced approximately 0.1 O.D. change per minute at 410 nm under the standard conditions.

Assay [4] deals with T4, plasmin (Homo sapiens, UniProt P00747).
T4 construct: from tissue; host or cells: human plasma
T4 sequence (P00747 581-810 limits assumed): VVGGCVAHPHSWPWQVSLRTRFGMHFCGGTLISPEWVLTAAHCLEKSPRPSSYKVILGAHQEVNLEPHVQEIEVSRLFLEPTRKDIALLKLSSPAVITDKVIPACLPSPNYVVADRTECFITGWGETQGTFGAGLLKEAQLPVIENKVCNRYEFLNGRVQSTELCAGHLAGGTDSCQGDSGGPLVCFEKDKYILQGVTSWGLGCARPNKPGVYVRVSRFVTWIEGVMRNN
T4 sequence (P00747 97-580 partner limits assumed): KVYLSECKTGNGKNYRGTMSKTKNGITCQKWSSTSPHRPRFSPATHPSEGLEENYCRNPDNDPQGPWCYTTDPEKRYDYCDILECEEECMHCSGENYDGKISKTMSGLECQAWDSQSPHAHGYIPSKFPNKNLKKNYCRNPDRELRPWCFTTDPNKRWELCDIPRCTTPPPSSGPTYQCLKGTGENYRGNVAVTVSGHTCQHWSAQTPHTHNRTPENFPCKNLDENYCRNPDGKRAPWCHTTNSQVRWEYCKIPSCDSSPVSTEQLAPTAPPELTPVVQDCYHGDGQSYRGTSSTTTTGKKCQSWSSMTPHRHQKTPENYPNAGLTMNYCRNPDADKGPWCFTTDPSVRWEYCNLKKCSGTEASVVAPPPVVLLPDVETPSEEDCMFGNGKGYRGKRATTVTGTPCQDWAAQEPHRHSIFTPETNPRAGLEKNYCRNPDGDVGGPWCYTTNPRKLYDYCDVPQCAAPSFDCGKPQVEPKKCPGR
The experiment in a line: Inhibition of plasmin (PTH). The assay is classed as biochemical. The following applies: pH 8.9, 10 minute preincubation, 22° C. As for the experimental part:
as §1, §2
Enzyme: Purified plasmin from human plasma Substrate: Tosyl-glyclyl-L-prolyl-L-lysine-pNA acetate
Reaction mixture: 50 mM Tris-HCl buffer (pH 8.9), 500 mM NaCl, 5% DMSO, 0.5 mM Substrate.
as §3, §4

Assay [5] has as its target T5, cathepsin C (Bos taurus, UniProt Q3ZCJ8).
T5 construct: from tissue; host or cells: bovine spleen
The assay can be described thus: Inhibition of cathepsin C (CTC). It counts as biochemical, bovine. Particulars: cathepsin C, pH 5.4, 10 minute preincubation, 22° C.; read-out: IC50 CTC. As to the method: as §1, §2
Enzyme: Purified cathepsin C from bovine spleen
Substrate: Glycyl-L-phenylalanine-pNA
Reaction mixture: 50 mM Citrate buffer (pH 5.4), 5 mM B-Mercaptoethanol, 150 mM NaCl, 10% DMSO, 20 mM Substrate.
as §3, §4

Assay [6] addresses T6, aminopeptidase M (Sus scrofa, UniProt P15145).
T6 construct: from tissue; host or cells: porcine kidney
T6 sequence (P15145 1-963): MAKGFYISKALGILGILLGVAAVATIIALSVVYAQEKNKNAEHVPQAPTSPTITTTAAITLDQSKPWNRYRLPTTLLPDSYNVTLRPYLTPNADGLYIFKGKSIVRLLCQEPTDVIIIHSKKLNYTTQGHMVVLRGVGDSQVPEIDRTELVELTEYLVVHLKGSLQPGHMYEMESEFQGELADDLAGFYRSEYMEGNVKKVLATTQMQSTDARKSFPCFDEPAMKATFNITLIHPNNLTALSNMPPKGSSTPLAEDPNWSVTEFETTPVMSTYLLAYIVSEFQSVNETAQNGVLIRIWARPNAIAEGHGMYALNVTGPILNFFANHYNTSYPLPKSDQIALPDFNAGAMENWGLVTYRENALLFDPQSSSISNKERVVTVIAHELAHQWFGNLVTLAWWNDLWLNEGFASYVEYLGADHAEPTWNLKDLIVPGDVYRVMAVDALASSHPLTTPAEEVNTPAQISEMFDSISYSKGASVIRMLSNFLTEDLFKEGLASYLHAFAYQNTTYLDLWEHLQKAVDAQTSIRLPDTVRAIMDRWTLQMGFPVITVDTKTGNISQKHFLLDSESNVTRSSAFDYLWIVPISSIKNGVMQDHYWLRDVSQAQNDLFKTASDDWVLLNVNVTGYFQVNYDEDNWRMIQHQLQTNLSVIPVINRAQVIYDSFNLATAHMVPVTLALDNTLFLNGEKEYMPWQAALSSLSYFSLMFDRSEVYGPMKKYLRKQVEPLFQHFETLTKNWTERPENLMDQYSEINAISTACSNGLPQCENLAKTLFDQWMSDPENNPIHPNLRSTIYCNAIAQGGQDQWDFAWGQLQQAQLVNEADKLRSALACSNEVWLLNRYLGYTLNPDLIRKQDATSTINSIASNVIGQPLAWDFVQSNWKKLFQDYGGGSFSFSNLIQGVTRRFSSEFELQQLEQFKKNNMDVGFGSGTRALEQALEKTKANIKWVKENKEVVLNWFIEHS
The experiment in a line: Inhibition of aminopeptidase M (ATM). It counts as biochemical, porcine. The following applies: aminopeptidase M, pH 7.5, 10 minute preincubation, 22° C.; read-out: IC50 ATM. As to the method:
as §1, §2
aminopeptidase M; CTG, cathespin G; CTD, cathespin D; PPE, porcine
Enzyme: Purified aminopeptidase M from porcine kidney
Reaction Mixture: 50 mM Tricine buffer (pH 7.5), 500 mM NaCl, 10% DMSO, 2.0 mM Substrate.
as §3, §4

Assay [7] deals with T7, cathepsin G (Homo sapiens, UniProt P08311).
T7 construct: from tissue; host or cells: human white blood cells
T7 sequence (P08311 21-244 limits assumed): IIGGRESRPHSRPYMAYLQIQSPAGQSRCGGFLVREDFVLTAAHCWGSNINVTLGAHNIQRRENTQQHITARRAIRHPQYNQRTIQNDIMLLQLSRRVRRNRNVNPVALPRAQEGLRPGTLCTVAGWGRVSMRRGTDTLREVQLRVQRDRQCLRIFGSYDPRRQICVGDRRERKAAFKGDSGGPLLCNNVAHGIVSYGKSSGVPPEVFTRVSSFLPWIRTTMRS
The assay can be described thus: Inhibition of cathepsin G (CTG). Particulars: cathepsin G 50 nM, pH 7.5, 10 minute preincubation, 30° C.; read-out: IC50 CTG (converted). The assay is classed as biochemical.
Method: Enzyme: Purified Cathepsin G from human white blood cells
Substrate: N-succinyl-L-alanyl-L-alanyl-L-phenylalanyl-L-phenylalanine -p-NA.
Reaction mixture: 10 mM Phosphate buffer (pH 7.5), 500 mM NaCl, 10% DMSO, 2.0 mM Substrate.

Assay [8] has as its target T8, cathepsin D (Bos taurus, UniProt P80209).
T8 construct: from tissue; host or cells: bovine spleen
The assay can be described thus: Inhibition of cathepsin D (CTD). It counts as biochemical, bovine. As for the experimental part: as §4, with “Except for Cathepsin D, the enzyme activities were determined by monitoring the increase in absorbance at 410 nm caused by the hydrolysis of chromogenic substrates. The activity of Cathepsin D was determined by monitoring the absorbance of 5% trichloroacetic acid-soluble material at 280 nm. Inhibition” for “Inhibition”, “The concentration used for assays were porcine pancreatic elastase at 240 nM and human Cathepsin G at 50 nM.” left out

One may read the IC50 as the concentration at which inhibition is half-maximal.

SMILES strings stand for the structures.

T8 sequence (P80209 45-390): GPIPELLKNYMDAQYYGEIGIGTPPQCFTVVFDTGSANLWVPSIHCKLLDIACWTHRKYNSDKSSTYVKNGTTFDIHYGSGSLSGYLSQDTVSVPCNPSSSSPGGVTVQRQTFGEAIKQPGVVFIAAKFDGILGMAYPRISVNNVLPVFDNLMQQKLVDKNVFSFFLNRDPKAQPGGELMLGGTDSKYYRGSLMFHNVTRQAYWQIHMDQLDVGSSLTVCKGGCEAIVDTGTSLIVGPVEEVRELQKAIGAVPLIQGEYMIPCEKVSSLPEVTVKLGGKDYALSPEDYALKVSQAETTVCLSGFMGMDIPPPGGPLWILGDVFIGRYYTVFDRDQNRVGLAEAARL
T5 sequence (Q3ZCJ8 231-394 limits assumed): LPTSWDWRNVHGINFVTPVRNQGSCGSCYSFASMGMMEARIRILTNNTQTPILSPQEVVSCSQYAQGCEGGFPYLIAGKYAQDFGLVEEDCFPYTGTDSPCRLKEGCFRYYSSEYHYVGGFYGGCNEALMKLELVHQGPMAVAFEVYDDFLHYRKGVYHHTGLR
T5 sequence (Q3ZCJ8 395-463 limits assumed): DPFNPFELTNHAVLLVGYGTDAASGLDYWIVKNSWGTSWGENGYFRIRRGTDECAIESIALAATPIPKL
T5 sequence (Q3ZCJ8 25-134 limits assumed): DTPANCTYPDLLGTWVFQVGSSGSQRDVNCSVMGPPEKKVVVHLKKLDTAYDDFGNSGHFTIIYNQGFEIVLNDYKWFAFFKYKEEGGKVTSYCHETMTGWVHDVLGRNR

Compound `COc1ccc(COC(=O)C2=C(CCl)C3(CC3(c3ccccc3)c3ccccc3)S(=O)(=O)[C@@H]3[C@@H](Br)C(=O)N23)cc1` (stereo partly drawn) [p-Methoxybenzyl 7α-bromo-2-spiro(2',2'-diphenyl) cyclopropyl-3-chloromethyl-3-cephem-4-carboxylate-1,1-dioxide] gave an IC50 in assay [1] of 4.04 nM.
On to `CC1=C(C(=O)OC(c2ccccc2)c2ccccc2)N2C(=O)CC2S(=O)(=O)C12CC2(c1ccccc1)c1ccccc1` (stereo not shown) [Example 5, Benzhydryl 7,7-dihydro-2-spiro(2',2'-diphenyl)cyclopropyl-3-methyl-3-cephem-4-carboxylate-1,1-dioxide], for which, in assay [1], the IC50 is 149 nM.
Same read-out and setting: next, `CC(=O)OCC1=C(C(=O)OC(C)(C)C)N2C(=O)[C@H](Cl)[C@H]2S(=O)(=O)C12CC2(c1ccccc1)c1ccccc1` (stereo partly drawn) [Example 4, t-Butyl 7α-chloro-2-spiro(2',2'-diphenyl)cyclopropyl-3-acetoxymethyl-3-cephem-4-carboxylate-1,1-dioxide]: 91.4 nM; `CC1=C(C(=O)OC(c2ccccc2)c2ccccc2)N2C(=O)[C@H](Br)[C@H]2S(=O)(=O)C12CC2c1ccccc1` (stereo partly drawn) [Example 13 (3), Benzhydryl 7α-bromo-2-spiro(2'-phenyl)cyclopropyl-3-methyl-3-cephem-4-carboxylate-1,1-dioxide]: 6.57 nM; `Cc1nnc(SCC2=C(C(=O)OC(c3ccccc3)c3ccccc3)N3C(=O)[C@H](Br)[C@H]3[S+]([O-])C23CC3(c2ccc(Cl)cc2)c2ccc(Cl)cc2)s1` (stereo partly drawn) [Benzhydryl-7α-bromo-2-spiro[2',2'-(4',4'-dichloro)diphenyl]-cyclopropyl-3-[(5-methyl-1,3,4-thiadiazol-2-yl)thiomethyl]-3-cephem-4-carboxylate-1-oxide]: 48.9 nM.
On to `CO[C@H]1C(=O)N2C(C(=O)N3CCCCC3)=C(C)C3(CC3(c3ccccc3)c3ccccc3)S(=O)(=O)[C@H]12` (stereo partly drawn) [Example 11, 7α-Methoxy-2-spiro (2',2'-diphenyl)cyclopropyl-3-methyl-3-cephem-4-piperidine carboxamide-1,1-dioxide], for which the IC50 in assay [1] was 10.7 nM; in assay [2] it was over 10 µM; in assay [3], over 39.9 µM; in assay [4], over 10 µM; in assay [5], over 10 µM; in assay [6] it was over 10 µM. For the same compound, the IC50 in assay [7] is over 10 µM; in assay [8], 31.6 nM.

Source of the values: patent US5264429A, “2-spirocyclopropyl cephalosporin sulfone derivatives” (SynPhar Laboratories, Inc., priority 1991, dated 1993).
